Data from US20230407243A1, “GENETIC PLATFORM TO INVESTIGATE THE FUNCTIONS OF BACTERIAL DRUG EFFLUX PUMPS” (priority 2022, published 2023).
Like-named read-outs stand apart in the source and are kept apart here.

Key:
Format in all cases: cell-based, Escherichia coli
EKO-35 araC::macAB = assay: MIC susceptibility profiling, efflux platform; details: for Fold change of MICs: EKO-35 araC::macAB compared to EKO-35
Outline: (§1)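 Overnight LB cultures resuspended in PBS to OD600 ~1.0, diluted 1/2000 into MHB II, and added to 2-fold serial compound dilutions in duplicate with DMSO controls. Incubated 18 h at 37° C. with 900 rpm shaking; OD600 read before and after, background subtracted, to derive MIC.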

EKO-35 araC::acrD = assay: MIC susceptibility profiling, efflux platform; details: for Fold change of MICs: EKO-35 araC::acrD compared to EKO-35
Outline: as §1

EKO-35 araC::mdtEF = assay: MIC susceptibility profiling, efflux platform; details: for Fold change of MICs: EKO-35 araC::mdtEF compared to EKO-35
Outline: as §1

EKO-35 araC::acrB = assay: MIC susceptibility profiling, efflux platform; details: for Fold change of MICs: EKO-35 araC::acrB compared to EKO-35
Outline: as §1

[1] = system: EKO-35 araC::mexCD (MexCD from P. aeruginosa); assay: MIC susceptibility profiling, efflux platform; details: for Fold change of MICs: EKO-35 araC::mexCD compared to EKO-35
Outline: as §1

EKO-35 araC::acrBD408A = assay: MIC susceptibility profiling, efflux platform; details: for Fold change of MICs: EKO-35 araC::acrBD408A compared to EKO-35
Outline: as §1

EKO-35 araC::acrEF = assay: MIC susceptibility profiling, efflux platform; details: for Fold change of MICs: EKO-35 araC::acrEF compared to EKO-35
Outline: as §1

EKO-35 araC::mdtBC = assay: MIC susceptibility profiling, efflux platform; details: for Fold change of MICs: EKO-35 araC::mdtBC compared to EKO-35
Outline: as §1

EKO-35 araC::emrAB = assay: MIC susceptibility profiling, efflux platform; details: for Fold change of MICs: EKO-35 araC::emrAB compared to EKO-35
Outline: as §1

EKO-35 araC::emrKY = assay: MIC susceptibility profiling, efflux platform; details: for Fold change of MICs: EKO-35 araC::emrKY compared to EKO-35
Outline: as §1

EKO-35 araC::mdtEF Pore = assay: MIC susceptibility profiling, porinated efflux platform; details: for Fold changes of MICs: EKO-35 araC::mdtEF Pore compared to EKO-35-Pore
Outline: (§2)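 E. coli strains carrying a genomically integrated constitutive fhuA ΔC/Δ4L pore were grown 18 h in LB at 37 °C, then diluted 1/2000 in MHB II from OD600 ~1.0. Compounds were tested in duplicate, 2-fold serial titration, for 18 h at 37 °C with shaking. MIC came from OD600 with the pre-incubation background subtracted.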

EKO-35 araC::emrKY Pore = assay: as above; details: for Fold changes of MICs: EKO-35 araC::emrKY Pore compared to EKO-35-Pore
Outline: as §2

EKO-35 araC::macAB Pore = assay: as above; details: for Fold changes of MICs: EKO-35 araC::macAB Pore compared to EKO-35-Pore
Outline: as §2

EKO-35 araC::acrEF Pore = assay: as above; details: for efflux pump-mediated resistance vs EKO-35-Pore: AcrEF with the pore; for Fold changes of MICs: EKO-35 araC::acrEF Pore compared to EKO-35-Pore
Outline: as §2

[2] = system: wild-type E. coli K-12 str. BW25113; assay: microbe, parasite or virus in culture; details: technical duplicate; for MIC: Escherichia coli, BW25113
Outline: as §1

E. coli EKO-35 = assay: microbe, parasite or virus in culture; details: for Fold change of MICs: EKO-35 compared to EKO-35 (reference); for MIC: Escherichia coli, EKO35
Outline: as §1

E. coli ΔtolC = assay: microbe, parasite or virus in culture; details: for Minimum inhibitory concentration (MIC), ΔtolC: Table 10, without pore
Outline: as §1

ΔtolC-Pore = assay: microbe, parasite or virus in culture; details: for Minimum inhibitory concentration (MIC), Pore ΔtolC: Table 10, with pore
Outline: as §2

wild-type (WT) K-12-Pore = assay: microbe, parasite or virus in culture; details: technical duplicate; for MIC: Escherichia coli
Outline: as §2

[3] = Table 13B, non-porinated, technical duplicate
[4] = Table 13A, non-porinated, technical duplicate
[5] = Table 14A, porinated, technical duplicate

COC(=O)c1sc(N2CCCC2)c(C#N)c1-c1cccs1 [compound 10]
Fold change of MICs (EKO-35 araC::macAB): 1 fold
Minimum Inhibitory Concentration, EKO-35 araC::macAB (EKO-35 araC::macAB; [3]): 160 µg/mL
Fold change of MICs (EKO-35 araC::acrD): 1 fold
Minimum Inhibitory Concentration, EKO-35 araC::acrD (EKO-35 araC::acrD; [4]): 160 µg/mL
Fold change of MICs (EKO-35 araC::mdtEF): 1 fold
Minimum Inhibitory Concentration, EKO-35 araC::mdtEF (EKO-35 araC::mdtEF; [4]): 160 µg/mL
Fold change of MICs (EKO-35 araC::acrB): 1 fold
Minimum Inhibitory Concentration, EKO-35 araC::acrB (EKO-35 araC::acrB; [4]): 160 µg/mL
Fold change of MICs [1]: 1 fold
Minimum Inhibitory Concentration, EKO-35 araC::mexCD [1, 3]: 160 µg/mL
Fold change of MICs (EKO-35 araC::acrBD408A): 1 fold
Minimum Inhibitory Concentration, EKO-35 araC::acrBD408A (EKO-35 araC::acrBD408A; [3]): 160 µg/mL
Fold change of MICs (EKO-35 araC::acrEF): 1 fold
Minimum Inhibitory Concentration, EKO-35 araC::acrEF (EKO-35 araC::acrEF; [4]): 160 µg/mL
Fold change of MICs (EKO-35 araC::mdtBC): 1 fold
Minimum Inhibitory Concentration, EKO-35 araC::mdtBC (EKO-35 araC::mdtBC; [3]): 160 µg/mL
Fold change of MICs (EKO-35 araC::emrAB): 1 fold
Minimum Inhibitory Concentration, EKO-35 araC::emrAB (EKO-35 araC::emrAB; [3]): 160 µg/mL
Fold change of MICs (EKO-35 araC::emrKY): 1 fold
Minimum Inhibitory Concentration, EKO-35 araC::emrKY (EKO-35 araC::emrKY; [3]): 160 µg/mL
Fold changes of MICs (EKO-35 araC::mdtEF Pore): 16 fold
efflux pump-mediated resistance vs EKO-35-Pore (EKO-35 araC::mdtEF Pore; MdtEF with the pore): increased resistance
Minimum inhibitory concentration, EKO-35 araC::mdtEF Pore (EKO-35 araC::mdtEF Pore; [5]): 160 µg/mL
Fold changes of MICs (EKO-35 araC::emrKY Pore): 1 fold
Minimum inhibitory concentration (EKO-35 araC::emrKY Pore; EKO-35 araC::emrKY Pore, technical duplicate): 10 µg/mL
Fold changes of MICs (EKO-35 araC::macAB Pore): 1 fold
Minimum inhibitory concentration (EKO-35 araC::macAB Pore; EKO-35 araC::macAB Pore, technical duplicate): 10 µg/mL
efflux pump-mediated resistance vs EKO-35-Pore (EKO-35 araC::acrEF Pore): increased resistance
Fold changes of MICs (EKO-35 araC::acrEF Pore): 16 fold
Minimum inhibitory concentration, EKO-35 araC::acrEF Pore (EKO-35 araC::acrEF Pore; [5]): 160 µg/mL
Minimum inhibitory concentration (MIC), K-12 ([2]; Table 10, without pore): 160 µg/mL
Minimum Inhibitory Concentration, K-12 ([2]; Table 13A, non-porinated): 160 µg/mL
Fold change of MICs (E. coli EKO-35): 1 fold
Minimum inhibitory concentration (MIC), EKO-35 (E. coli EKO-35; Table 10, without pore, technical duplicate): 160 µg/mL
Minimum Inhibitory Concentration, EKO-35 (E. coli EKO-35; [4]): 160 µg/mL
Minimum inhibitory concentration (MIC), ΔtolC (E. coli ΔtolC; technical duplicate): 10 µg/mL
Minimum Inhibitory Concentration, ΔtolC (E. coli ΔtolC; [4]): 10 µg/mL
Minimum inhibitory concentration (MIC), Pore ΔtolC (ΔtolC-Pore; technical duplicate): 5 µg/mL
Minimum inhibitory concentration, ΔtolC-Pore (ΔtolC-Pore; [5]): 5 µg/mL
Minimum inhibitory concentration (MIC), Pore K-12 (wild-type (WT) K-12-Pore; Table 10, with pore): 160 µg/mL
Minimum inhibitory concentration, K-12 (WT)-Pore (wild-type (WT) K-12-Pore; Table 14A, porinated): 160 µg/mL

CCn1cc(C(=O)O)c(=O)c2ccc(C)nc21 [nalidixic acid]
Fold change of MICs (EKO-35 araC::macAB): 1 fold
MIC (EKO-35 araC::macAB; Escherichia coli, Table 13B, non-porinated, technical duplicate, read-out: Minimum Inhibitory Concentration, EKO-35 araC::macAB): 1.25 µg/mL
Fold change of MICs (EKO-35 araC::acrD): 2 fold
MIC (EKO-35 araC::acrD; Escherichia coli, Table 13A, non-porinated, technical duplicate, read-out: Minimum Inhibitory Concentration, EKO-35 araC::acrD): 2.5 µg/mL
Fold change of MICs (EKO-35 araC::mdtEF): 1 fold
MIC (EKO-35 araC::mdtEF; Escherichia coli, Table 13A, non-porinated, technical duplicate, read-out: Minimum Inhibitory Concentration, EKO-35 araC::mdtEF): 1.25 µg/mL
Fold change of MICs (EKO-35 araC::acrB): 8 fold
MIC (EKO-35 araC::acrB; Escherichia coli, Table 13A, non-porinated, technical duplicate, read-out: Minimum Inhibitory Concentration, EKO-35 araC::acrB): 10 µg/mL
Fold change of MICs [1]: 2 fold
MIC ([1]; Table 13B, non-porinated, technical duplicate, read-out: Minimum Inhibitory Concentration, EKO-35 araC::mexCD): 2.5 µg/mL
Fold change of MICs (EKO-35 araC::acrBD408A): 1 fold
MIC (EKO-35 araC::acrBD408A; Escherichia coli, Table 13B, non-porinated, technical duplicate, read-out: Minimum Inhibitory Concentration, EKO-35 araC::acrBD408A): 1.25 µg/mL
Fold change of MICs (EKO-35 araC::acrEF): 4 fold
Fold change of MICs (EKO-35 araC::mdtBC): 1 fold
MIC (EKO-35 araC::mdtBC; Escherichia coli, Table 13B, non-porinated, technical duplicate, read-out: Minimum Inhibitory Concentration, EKO-35 araC::mdtBC): 1.25 µg/mL
Fold change of MICs (EKO-35 araC::emrAB): 8 fold
MIC (EKO-35 araC::emrAB; Escherichia coli, Table 13B, non-porinated, technical duplicate, read-out: Minimum Inhibitory Concentration, EKO-35 araC::emrAB): 10 µg/mL
Fold change of MICs (EKO-35 araC::emrKY): 1 fold
MIC (EKO-35 araC::emrKY; Escherichia coli, Table 13B, non-porinated, technical duplicate, read-out: Minimum Inhibitory Concentration, EKO-35 araC::emrKY): 1.25 µg/mL
Fold changes of MICs (EKO-35 araC::mdtEF Pore): 1 fold
MIC (EKO-35 araC::mdtEF Pore; Escherichia coli, Table 14A, porinated, technical duplicate, read-out: Minimum inhibitory concentration, EKO-35 araC::mdtEF Pore): 1.25 µg/mL
Fold changes of MICs (EKO-35 araC::emrKY Pore): 1 fold
MIC (EKO-35 araC::emrKY Pore; Escherichia coli, EKO-35 araC::emrKY Pore, technical duplicate, read-out: Minimum inhibitory concentration): 1.25 µg/mL
Fold changes of MICs (EKO-35 araC::macAB Pore): 1 fold
MIC (EKO-35 araC::macAB Pore; Escherichia coli, EKO-35 araC::macAB Pore, technical duplicate, read-out: Minimum inhibitory concentration): 1.25 µg/mL
efflux pump-mediated resistance vs EKO-35-Pore (EKO-35 araC::acrEF Pore): impacted the ability of AcrEF to confer resistance
Fold changes of MICs (EKO-35 araC::acrEF Pore): 2 fold
MIC (EKO-35 araC::acrEF Pore; Escherichia coli, Table 14A, porinated, technical duplicate, read-out: Minimum inhibitory concentration, EKO-35 araC::acrEF Pore): 2.5 µg/mL
MIC ([2]; Table 10, without pore, read-out: Minimum inhibitory concentration (MIC), K-12): 10 µg/mL
MIC ([2]; Table 13A, non-porinated, read-out: Minimum Inhibitory Concentration, K-12): 10 µg/mL
Fold change of MICs (E. coli EKO-35): 1 fold
MIC (E. coli EKO-35; Table 10, without pore, technical duplicate, read-out: Minimum inhibitory concentration (MIC), EKO-35): 1.25 µg/mL
MIC (E. coli EKO-35; Table 13A, non-porinated, technical duplicate, read-out: Minimum Inhibitory Concentration, EKO-35): 1.25 µg/mL
MIC (E. coli ΔtolC; Escherichia coli, 18 h, read-out: Minimum Inhibitory Concentration, ΔtolC): 1.25 µg/mL
Minimum inhibitory concentration (MIC), ΔtolC (E. coli ΔtolC; technical duplicate): 1.25 µg/mL
MIC (ΔtolC-Pore; Escherichia coli, 18 h, read-out: Minimum inhibitory concentration, ΔtolC-Pore): 1.25 µg/mL
Minimum inhibitory concentration (MIC), Pore ΔtolC (ΔtolC-Pore; technical duplicate): 1.25 µg/mL
MIC (wild-type (WT) K-12-Pore; Table 10, with pore, read-out: Minimum inhibitory concentration (MIC), Pore K-12): 5 µg/mL
MIC (wild-type (WT) K-12-Pore; Table 14A, porinated, read-out: Minimum inhibitory concentration, K-12 (WT)-Pore): 5 µg/mL
